# In paper PMC10247784, “Physiological activation of human and mouse bitter taste receptors by bile acids” (Communications Biology, 2023):
# Target: T1, mouse Tas2r144 (Mus musculus, UniProt Q7TQB8)
# T1 construct: expressed in transfected cells; host or cells: HEK293T-Gα16gust44
# Assay: Calcium imaging assay (FLIPR), HEK293T-Gα16gust44 cells transfected with mouse Tas2r144
# Format: cell-based
# Protocol: This set of bile acids was chosen because of their commercial availability in high purities, their diversity within the class of bile acids and their previous detection and quantitation in human blood. Stock solutions were prepared in DMSO.
# As basal growth medium for the HEK293T-Gα16gust44 cell line[17],[59] served Dulbecco’s modified eagle medium (DMEM) (Thermo Fisher Scientific, Darmstadt, Germany) supplemented with 10 % fetal bovine serum (Sigma-Aldrich, Steinheim, Germany), 2 mM L-glutamine (Sigma-Aldrich, Steinheim, Germany), 100 units/ml penicillin (Sigma Aldrich, Steinheim, Germany) and 100 µg/ml streptomycin (Sigma Aldrich, Steinheim, Germany). Growth conditions were 37 °C, 5 % CO2 and saturated air-humidity[60].
# HEK293T-Gα16gust44 cells were seeded on poly-D-lysine (10 µg/ml) coated 96-well plates to reach a confluence of 40-60 % the next day. For transient transfection 150 ng of plasmid DNA containing the receptor of interest and 0.3 µl lipofectamine 2000 (Thermo Fisher Scientific, Darmstadt, Germany) per well were used and transfection took place according to the manual of lipofectamine 2000. […] The empty vector DNA (mock) was transfected as negative control[14],[41].
# Cells were loaded using the calcium-sensitive fluorescent dye Fluo-4-AM (Abcam, Cambridge, Great Britain) in the presence of 2.5 mM probenecid (Sigma-Aldrich, Steinheim, Germany) the day after transfection[13],[41]. 1 h after loading, cells were washed with C1 buffer using a BioTek Cell Washer, incubated in the dark for half an hour and washed again. For automated agonist application and measurement of fluorescence changes, a FLIPR^TETRA device (Molecular Devices, San José, United States) was used. Viability of cells was tested by application of 100 nM Somatostatin 14 (Bachem, Bubendorf, Switzerland)[42].
# Measured data were negative control corrected by subtracting the signal of the mock-transfected cells and exported to Microsoft Excel using the FLIPR software ScreenWorks 4.2. In Microsoft Excel software, standardization of maximum fluorescence intensities to the basal fluorescence and normalization to the buffer-only control was done to calculate the relative fluorescence changes (ΔF/F).
# Initial screening experiments performed in duplicate wells were confirmed by at least one replication and representative traces were selected for display. All dose-response relationships were determined by three independent experiments (biological replicates) performed in duplicates (technical replicates). Threshold concentrations, defined as lowest substance concentrations leading to statistically significant elevated fluorescence changes in receptor-transfected cells compared with empty vector-transfected cells, were determined using SigmaPlot with Student’s t-test to evaluate statistical significance (p < 0.01).
# T1 sequence (Q7TQB8 whole entry): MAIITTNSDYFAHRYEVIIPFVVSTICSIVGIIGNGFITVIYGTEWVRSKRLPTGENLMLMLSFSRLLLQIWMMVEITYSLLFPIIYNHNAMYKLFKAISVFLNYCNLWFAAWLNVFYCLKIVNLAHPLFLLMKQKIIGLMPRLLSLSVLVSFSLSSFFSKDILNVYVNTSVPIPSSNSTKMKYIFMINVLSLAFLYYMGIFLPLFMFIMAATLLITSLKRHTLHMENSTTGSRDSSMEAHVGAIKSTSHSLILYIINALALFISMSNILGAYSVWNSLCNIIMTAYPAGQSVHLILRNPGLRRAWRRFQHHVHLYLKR
smiles,measurement,setting,value
"C[C@H](CCC(=O)O)[C@H]1CC[C@H]2[C@@H]3[C@H](O)C[C@@H]4C[C@H](O)CC[C@]4(C)[C@H]3C[C@H](O)[C@]12C [Cholic Acid, cholic acid]",RLU,Time 0 s,0 RLU
same,RLU,Time 2 s,0.2042 RLU
same,RLU,Time 4 s,5.384 RLU
same,RLU,Time 6 s,-45.6095 RLU
same,RLU,Time 8 s,13.5839 RLU
same,RLU,Time 12 s,34.8706 RLU
same,RLU,Time 14 s,52.0817 RLU
same,RLU,Time 16 s,11.4185 RLU
same,RLU,Time 18 s,29.9569 RLU
same,RLU,Time 18.781 s,46.048 RLU
same,RLU,Time 20.781 s,112.965 RLU
same,RLU,Time 22.781 s,165.689 RLU
same,RLU,Time 24.781 s,205.772 RLU
same,RLU,Time 26.781 s,242.163 RLU
same,RLU,Time 28.781 s,320.656 RLU
same,RLU,Time 30.781 s,367.762 RLU
same,RLU,Time 32.781 s,422.903 RLU
same,RLU,Time 34.781 s,499.119 RLU
same,RLU,Time 36.781 s,524.9 RLU
same,RLU,Time 38.781 s,565.569 RLU
same,RLU,Time 40.781 s,583.905 RLU
same,RLU,Time 42.781 s,606.644 RLU
same,RLU,Time 44.781 s,633.066 RLU
same,RLU,Time 46.781 s,639.921 RLU
same,RLU,Time 48.781 s,638.534 RLU
same,RLU,Time 50.781 s,641.518 RLU
same,RLU,Time 52.781 s,632.385 RLU
same,RLU,Time 54.781 s,644.317 RLU
same,RLU,Time 56.781 s,655.573 RLU
same,RLU,Time 58.781 s,678.513 RLU
same,RLU,Time 60.781 s,666.775 RLU
same,RLU,Time 62.781 s,667.745 RLU
same,RLU,Time 64.781 s,637 RLU
same,RLU,Time 66.781 s,647.88 RLU
same,RLU,Time 68.781 s,635.725 RLU
same,RLU,Time 70.781 s,644.081 RLU
same,RLU,Time 72.781 s,655.408 RLU
same,RLU,Time 74.781 s,647.263 RLU
same,RLU,Time 76.781 s,633.033 RLU
same,RLU,Time 78.781 s,631.561 RLU
same,RLU,Time 80.781 s,620.522 RLU
same,RLU,Time 82.781 s,627.467 RLU
same,RLU,Time 84.781 s,627.103 RLU
same,RLU,Time 86.781 s,578.642 RLU
same,RLU,Time 88.781 s,568.631 RLU
same,RLU,Time 90.781 s,548.759 RLU
same,RLU,Time 92.781 s,576.256 RLU
same,RLU,Time 94.781 s,543.082 RLU
same,RLU,Time 96.781 s,562.136 RLU
same,RLU,Time 98.781 s,521.114 RLU
same,RLU,Time 100.781 s,533.293 RLU
same,RLU,Time 102.781 s,509.746 RLU
same,RLU,Time 104.781 s,492.298 RLU
same,RLU,Time 106.781 s,485.694 RLU
same,RLU,Time 108.781 s,481.982 RLU
same,RLU,Time 110.781 s,458.143 RLU
same,RLU,Time 112.781 s,439.768 RLU
same,RLU,Time 114.781 s,433.077 RLU
same,RLU,Time 116.781 s,415.823 RLU
same,RLU,Time 118.781 s,408.859 RLU
same,RLU,Time 120.781 s,392.039 RLU
same,RLU,Time 122.781 s,431.314 RLU
same,RLU,Time 124.781 s,392.828 RLU
same,RLU,Time 126.781 s,373.554 RLU
same,RLU,Time 128.781 s,347.376 RLU
same,RLU,Time 130.781 s,337.354 RLU
same,RLU,Time 132.781 s,314.537 RLU
same,RLU,Time 134.781 s,326.444 RLU
same,RLU,Time 136.781 s,292.52 RLU
same,RLU,Time 137.562 s,313.513 RLU
same,RLU,Time 143.562 s,250.659 RLU
same,RLU,Time 149.562 s,229.584 RLU
same,RLU,Time 155.562 s,203.982 RLU
same,RLU,Time 161.562 s,211.817 RLU
same,RLU,Time 167.562 s,206.485 RLU
same,RLU,Time 173.562 s,171.281 RLU
same,RLU,Time 179.562 s,153.445 RLU
same,RLU,Time 185.562 s,144.359 RLU
same,RLU,Time 191.562 s,143.458 RLU
same,RLU,Time 197.562 s,135.182 RLU
same,RLU,Time 203.562 s,115.034 RLU
same,RLU,Time 209.562 s,107.877 RLU
same,RLU,Time 215.562 s,83.8781 RLU
same,RLU,Time 221.562 s,20.807 RLU
same,RLU,Time 227.562 s,27.2515 RLU
same,RLU,Time 233.562 s,-2.456 RLU
same,RLU,Time 239.562 s,17.5402 RLU
same,RLU,Time 245.562 s,-0.008323 RLU
same,RLU,Time 293.562 s,2 RLU
same,RLU,Time 299.562 s,-5.681 RLU
same,RLU,Time 305.562 s,20.6398 RLU
same,RLU,Time 311.562 s,25.3808 RLU
same,RLU,Time 317.562 s,16.3914 RLU
same,RLU,Time 323.562 s,41.1546 RLU
same,RLU,Time 329.562 s,-2.456 RLU
same,RLU,Time 335.562 s,34.2464 RLU
same,RLU,Time 341.562 s,21.8644 RLU
same,RLU,Time 347.562 s,15.2738 RLU
same,RLU,Time 353.562 s,29.9395 RLU
same,RLU,Time 359.562 s,27.2515 RLU
same,Activation threshold concentration Tas2r144,p < 0.01 vs empty vector,100 µM
